Format in all cases: binding
For assay [1], the target named is T1, DNA polymerase α catalytic subunit (POLA1) (Homo sapiens, UniProt P09884, L764S).
T1 sequence (P09884 335-1257 L764S): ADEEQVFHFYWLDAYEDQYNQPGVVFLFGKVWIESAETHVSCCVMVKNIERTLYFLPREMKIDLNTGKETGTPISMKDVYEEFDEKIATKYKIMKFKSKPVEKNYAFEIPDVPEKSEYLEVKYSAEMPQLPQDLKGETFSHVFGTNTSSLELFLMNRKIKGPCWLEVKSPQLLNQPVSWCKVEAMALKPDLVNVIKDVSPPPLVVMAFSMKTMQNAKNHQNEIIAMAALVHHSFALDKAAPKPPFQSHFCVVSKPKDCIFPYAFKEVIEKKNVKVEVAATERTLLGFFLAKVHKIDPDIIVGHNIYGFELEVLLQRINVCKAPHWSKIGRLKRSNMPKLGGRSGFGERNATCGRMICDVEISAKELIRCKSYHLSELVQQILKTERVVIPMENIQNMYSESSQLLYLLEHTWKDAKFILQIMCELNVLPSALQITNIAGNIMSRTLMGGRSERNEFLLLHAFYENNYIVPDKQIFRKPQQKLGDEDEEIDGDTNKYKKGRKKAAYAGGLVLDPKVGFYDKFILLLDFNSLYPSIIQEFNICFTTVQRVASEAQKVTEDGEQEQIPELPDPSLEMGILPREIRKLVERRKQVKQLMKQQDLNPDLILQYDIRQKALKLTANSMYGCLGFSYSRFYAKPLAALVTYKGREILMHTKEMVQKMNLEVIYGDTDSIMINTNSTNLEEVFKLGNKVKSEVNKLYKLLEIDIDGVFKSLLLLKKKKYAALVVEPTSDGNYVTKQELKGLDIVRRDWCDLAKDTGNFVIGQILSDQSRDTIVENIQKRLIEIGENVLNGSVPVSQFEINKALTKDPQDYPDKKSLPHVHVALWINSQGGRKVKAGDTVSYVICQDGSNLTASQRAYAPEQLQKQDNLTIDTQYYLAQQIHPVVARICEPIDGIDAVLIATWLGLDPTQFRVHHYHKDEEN
The assay can be described thus: CD437 fluorescence intensity enhancement titration.

Assay [2] concerns the target T2, DNA polymerase α catalytic subunit (POLA1) (Homo sapiens, UniProt P09884, L700S).
T2 sequence (P09884 335-1257 L700S): T1 sequence (P09884 335-1257 L764S) with L366S, S430L
The assay can be described thus: CD437 fluorescence intensity enhancement titration.

Assay [3] deals with T3, DNA polymerase α catalytic subunit (POLA1) (Homo sapiens, UniProt P09884).
T3 sequence (P09884 335-1257): T1 sequence (P09884 335-1257 L764S) with S430L
The experiment in a line: CD437 fluorescence intensity enhancement and anisotropy titration.

Experimental findings from PMC4912453 (Nature chemical biology, 2016) are described below.

Positions count from the first letter of the chain named. Some results are limits rather than exact numbers.

In the case of `O=C(O)c1ccc2cc(-c3ccc(O)c(C45CC6CC(CC(C6)C4)C5)c3)ccc2c1` [CD437, 6-[3-(1-adamantyl)-4-hydroxyphenyl]-2-naphthalene carboxylic acid], the figures for the Kd in assay [1], in assay [2] and in assay [3] were 94 ± 18 nM, less than 5 nM and 67 ± 22 nM, respectively.

As usually defined, the Kd is a measure of binding affinity in units of concentration.
